Here are results for ten molecules from patent publication US10294234B2, “HIV inhibitor compounds” (priority 2017, dated 2019).

The procedure of data set [1]: Liver Microsomal Stability Protocol
Test compounds and one control compound (verapamil) were tested in 3 different species in duplicate sets.
Test compound concentration: 1 uM; Protein concentration: 0.5 mg/mL (for dog, rat, and human liver microsomes); Cofactor: NADPH-Regenerating system (NRS) solution; Time-points: 2, 12, 25, 45, and 65 minutes.
Reaction composition (in each incubation well) contains:
After plates were vortexed, they were centrifuged for 30 minutes to remove proteins. About 100 μL supernatant was removed to a new plate and diluted with 150 μL water. About 20 μL of the mixture was injected into LC/MS/MS system to monitor the compound's response. In vitro measured t1/2 was used to calculate Clint values.

Data set [2] deals with HIV-1 (IIIB) in MT-4 cells. The experiment in a line: MT-4 HIV assay. In kind it is cell-based. The note with it: Human immunodeficiency virus 1, MT4, 120 h. A digest of the protocol:
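MT-4 cells infected with HIV-1 IIIB (1:250 stock dilution) were incubated with 1:3 serially diluted compounds in RPMI with 10% FBS for 5 days at 37 °C. Cell Titer Glo luminescence was the readout. Plates included mock-infected wells, no-drug wells and 5 uM AZT controls.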

The mark [3] stands for this setting: HIV-1 (IIIB), MT-4 cells, 5 days, Cell Titer Glo, read-out: EC50.
[4] abbreviates: human liver microsomes 0.5 mg/mL, 1 uM compound, NADPH.
The mark [5] stands for this setting: rat liver microsomes 0.5 mg/mL, 1 uM compound, NADPH.

Like-named read-outs stand apart in the source and are kept apart here.

`COC(=O)N[C@H](C(=O)N[C@@H](Cc1ccc(C#Cc2ccc(N3CC4CCC(C3)N4C3COC3)nc2)cc1)[C@@H](O)CN(Cc1c(F)cc(-c2ccn(CC(C)(C)O)n2)cc1F)NC(=O)[C@@H](NC(=O)OC)C(C)(C)C(F)(F)F)C(C)(C)C(F)(F)F` [Example 16, Methyl ((5S,8S,9S,14S)-11-(2,6-difluoro-4-(1-(2-hydroxy-2-methylpropyl)-1H-pyrazol-3-yl)benzyl)-16,16,16-trifluoro-9-hydroxy-15,15-dimethyl-8-(4-((6-(8-(oxetan-3-yl)-3,8-diazabicyclo[3.2.1]octan-3-yl)pyridin-3-yl)ethynyl)benzyl)-3,6,13-trioxo-5-(1,1,1-trifluoro-2-methylpropan-2-yl)-2-oxa-4,7,11,12-tetraazahexadecan-14-yl)carbamate]: in data set [1] (human, microsomes), the “Human Pred Cl.” value is on record as under 0.11 L/H/kg. Further, in data set [1] (rat, microsomes), the “Rat. Pred. Cl.” value is 0.45 L/H/kg. In data set [2] (setting [3]), the EC50 stood at 4.64 nM.
Regarding `COC(=O)N[C@H](C(=O)N[C@@H](Cc1ccc(C#Cc2ccc(N3CC4CCC(C3)N4C(=O)[C@@H]3CCCO3)nc2)cc1)[C@@H](O)CN(Cc1c(F)cc(-c2cnn(C(F)F)c2)cc1F)NC(=O)[C@@H](NC(=O)OC)C(C)(C)C(F)(F)F)C(C)(C)C(F)(F)F` [Example 18, Methyl ((5S,8S,9S,14S)-11-(4-(1-(difluoromethyl)-1H-pyrazol-4-yl)-2,6-difluorobenzyl)-16,16,16-trifluoro-9-hydroxy-15,15-dimethyl-3,6,13-trioxo-8-(4-((6-(8-((S)-tetrahydrofuran-2-carbonyl)-3,8-diazabicyclo[3.2.1]octan-3-yl)pyridin-3-yl)ethynyl)benzyl)-5-(1,1,1-trifluoro-2-methylpropan-2-yl)-2-oxa-4,7,11,12-tetraazahexadecan-14-yl)carbamate], in data set [1] (human, microsomes), the “Human Pred Cl.” value is listed as 0.13 L/H/kg. Also, the “Rat. Pred. Cl.” value in data set [1] (rat, microsomes) stood at 1.03 L/H/kg. In data set [2] (setting [3]), the EC50 stood at 5 nM.
For `COC(=O)N[C@H](C(=O)N[C@@H](Cc1ccc(C#Cc2ccc(N3C4CCC3CN(C3COC3)C4)nc2)cc1)[C@@H](O)CN(Cc1c(F)cc(-c2cnn(C(F)F)c2)cc1F)NC(=O)[C@@H](NC(=O)OC)C(C)(C)C(F)(F)F)C(C)(C)C(F)(F)F` [Example 19, methyl ((5S,8S,9S,14S)-11-(4-(1-(difluoromethyl)-1H-pyrazol-4-yl)-2,6-difluorobenzyl)-16,16,16-trifluoro-9-hydroxy-15,15-dimethyl-8-(4-((6-(3-(oxetan-3-yl)-3,8-diazabicyclo[3.2.1]octan-8-yl)pyridin-3-yl)ethynyl)benzyl)-3,6,13-trioxo-5-(1,1,1-trifluoro-2-methylpropan-2-yl)-2-oxa-4,7,11,12-tetraazahexadecan-14-yl)carbamate] the same measures were under 0.11 L/H/kg, 0.29 L/H/kg and 8.43 nM.
`COC(=O)N[C@H](C(=O)N[C@@H](Cc1ccc(C#Cc2cnc(N3C[C@H]4C[C@@H]3CN4C3COC3)nc2)cc1)[C@@H](O)CN(Cc1c(F)cc(-c2ccn(CC(F)F)n2)cc1F)NC(=O)[C@@H](NC(=O)OC)C(C)(C)C(F)(F)F)C(C)(C)C(F)(F)F` [Example 25, Methyl ((5S,8S,9S,14S)-11-(4-(1-(2,2-difluoroethyl)-1H-pyrazol-3-yl)-2,6-difluorobenzyl)-16,16,16-trifluoro-9-hydroxy-15,15-dimethyl-8-(4-((2-((1R,4R)-5-(oxetan-3-yl)-2,5-diazabicyclo[2.2.1]heptan-2-yl)pyrimidin-5-yl)ethynyl)benzyl)-3,6,13-trioxo-5-(1,1,1-trifluoro-2-methylpropan-2-yl)-2-oxa-4,7,11,12-tetraazahexadecan-14-yl)carbamate]: in data set [1] (setting [4]), the “Human Pred Cl.” value was found to be 0.16 L/H/kg. Further, in data set [1] (setting [5]), the “Rat. Pred. Cl.” value is given as 1.41 L/H/kg. Further, the concentration giving a half-maximal response (EC50) in data set [2] (setting [3]) came out at 3.19 nM.
Consider `COC(=O)N[C@H](C(=O)N[C@@H](Cc1ccc(C#Cc2ccc(N3CC4COCC(C3)N4)nc2)cc1)[C@@H](O)CN(Cc1c(F)cc(-c2ccn(C(F)F)n2)cc1F)NC(=O)[C@@H](NC(=O)OC)C(C)(C)C(F)(F)F)C(C)(C)C(F)(F)F` [Example 26, Methyl ((5S,8S,9S,14S)-8-(4-((6-(3-oxa-7,9-diazabicyclo[3.3.1]nonan-7-yl)pyridin-3-yl)ethynyl)benzyl)-11-(4-(1-(difluoromethyl)-1H-pyrazol-3-yl)-2,6-difluorobenzyl)-16,16,16-trifluoro-9-hydroxy-15,15-dimethyl-3,6,13-trioxo-5-(1,1,1-trifluoro-2-methylpropan-2-yl)-2-oxa-4,7,11,12-tetraazahexadecan-14-yl)carbamate], for which the “Human Pred Cl.” value in data set [1] (human, microsomes) is recorded as under 0.11 L/H/kg. Also, in data set [1] (rat, microsomes), the “Rat. Pred. Cl.” value was determined as 1.6 L/H/kg. For the same molecule, in data set [2] (setting [3]), the EC50 worked out at 4.24 nM.
Turning to `COC(=O)N[C@H](C(=O)N[C@@H](Cc1ccc(C#Cc2cnc(N3C[C@H]4C[C@@H]3CN4C3COC3)nc2)cc1)[C@@H](O)CN(Cc1c(F)cc(-c2ccn(C3CC3)n2)cc1F)NC(=O)[C@@H](NC(=O)OC)C(C)(C)C(F)(F)F)C(C)(C)C(F)(F)F` [Example 31, Methyl ((5S,8S,9S,14S)-11-(4-(1-cyclopropyl-1H-pyrazol-3-yl)-2,6-difluorobenzyl)-16,16,16-trifluoro-9-hydroxy-15,15-dimethyl-8-(4-((2-((1R,4R)-5-(oxetan-3-yl)-2,5-diazabicyclo[2.2.1]heptan-2-yl)pyrimidin-5-yl)ethynyl)benzyl)-3,6,13-trioxo-5-(1,1,1-trifluoro-2-methylpropan-2-yl)-2-oxa-4,7,11,12-tetraazahexadecan-14-yl)carbamate], the “Human Pred Cl.” value in data set [1] (setting [4]) is under 0.11 L/H/kg. In data set [1] (setting [5]), the “Rat. Pred. Cl.” value came out at 0.75 L/H/kg. Besides, the EC50 in data set [2] (setting [3]) stood at 3.06 nM.
With `COC(=O)N[C@H](C(=O)N[C@@H](Cc1ccc(C#Cc2cnc(N3C[C@H]4C[C@@H]3CN4C3COC3)nc2)cc1)[C@@H](O)CN(Cc1c(F)cc(-c2ccn(C(F)F)n2)cc1F)NC(=O)[C@@H](NC(=O)OC)C(C)(C)C(F)(F)F)C(C)(C)C(F)(F)F` [Example 32, Methyl ((5S,8S,9S,14S)-11-(4-(1-(difluoromethyl)-1H-pyrazol-3-yl)-2,6-difluorobenzyl)-16,16,16-trifluoro-9-hydroxy-15,15-dimethyl-8-(4-((2-((1R,4R)-5-(oxetan-3-yl)-2,5-diazabicyclo[2.2.1]heptan-2-yl)pyrimidin-5-yl)ethynyl)benzyl)-3,6,13-trioxo-5-(1,1,1-trifluoro-2-methylpropan-2-yl)-2-oxa-4,7,11,12-tetraazahexadecan-14-yl)carbamate], the “Human Pred Cl.” value in data set [1] (setting [4]) is under 0.11 L/H/kg. The “Rat. Pred. Cl.” value in data set [1] (setting [5]) is given as 0.59 L/H/kg. Besides, in data set [2] (setting [3]), the EC50 amounted to 2.65 nM.
For `COC(=O)N[C@H](C(=O)N[C@@H](Cc1ccc(C#Cc2ccc(N3CC4COCC(C3)N4C)nc2)cc1)[C@@H](O)CN(Cc1c(F)cc(-c2ccn(C3CC3)n2)cc1F)NC(=O)[C@@H](NC(=O)OC)C(C)(C)C(F)(F)F)C(C)(C)C(F)(F)F` [Example 35], the “Dog. Pred. Cl.” value in data set [1] (dog, microsomes) worked out at 1.74 L/H/kg. The “Human Pred Cl.” value in data set [1] (human, microsomes) is on record as under 0.11 L/H/kg. Besides, the “Rat. Pred. Cl.” value in data set [1] (rat, microsomes) is 2.1 L/H/kg. In data set [2] (setting [3]), the EC50 amounted to 3.54 nM.
Regarding `COC(=O)N[C@H](C(=O)N[C@@H](Cc1ccc(C#Cc2cnc(N3CC4CCC(C3)N4C3COC3)nc2)cc1)[C@@H](O)CN(Cc1c(F)cc(-c2ccn(C3CC3)n2)cc1F)NC(=O)[C@@H](NC(=O)OC)C(C)(C)C(F)(F)F)C(C)(C)C(F)(F)F` [Example 37, Methyl ((5S,8S,9S,14S)-11-(4-(1-cyclopropyl-1H-pyrazol-3-yl)-2,6-difluorobenzyl)-16,16,16-trifluoro-9-hydroxy-15,15-dimethyl-8-(4-((2-(8-(oxetan-3-yl)-3,8-diazabicyclo[3.2.1]octan-3-yl)pyrimidin-5-yl)ethynyl)benzyl)-3,6,13-trioxo-5-(1,1,1-trifluoro-2-methylpropan-2-yl)-2-oxa-4,7,11,12-tetraazahexadecan-14-yl)carbamate], the “Human Pred Cl.” value in data set [1] (human, microsomes) is under 0.11 L/H/kg. Besides, in data set [1] (rat, microsomes), the “Rat. Pred. Cl.” value is on record as 0.32 L/H/kg. The EC50 in data set [2] (setting [3]) came to 6.75 nM.
As to `COC(=O)N[C@H](C(=O)N[C@@H](Cc1ccc(C#Cc2ccc(N3C[C@@H]4C[C@H]3CN4C3COC3)nc2)cc1)[C@@H](O)CN(Cc1c(F)cc(-c2ccn(C3CC3)n2)cc1F)NC(=O)[C@@H](NC(=O)OC)C(C)(C)C(F)(F)F)C(C)(C)C(F)(F)F` [Example 39, Methyl ((5S,8S,9S,14S)-11-(4-(1-cyclopropyl-1H-pyrazol-3-yl)-2,6-difluorobenzyl)-16,16,16-trifluoro-9-hydroxy-15,15-dimethyl-8-(4-((6-((1S,4S)-5-(oxetan-3-yl)-2,5-diazabicyclo[2.2.]heptan-2-yl)pyridin-3-yl)ethynyl)benzyl)-3,6,13-trioxo-5-(1,1,1-trifluoro-2-methylpropan-2-yl)-2-oxa-4,7,11,12-tetraazahexadecan-14-yl)carbamate], in data set [1] (setting [4]), the “Human Pred Cl.” value was 0.15 L/H/kg. Further, the “Rat. Pred. Cl.” value in data set [1] (setting [5]) is on record as 0.54 L/H/kg. In data set [2], a half-maximal response (EC50) required 2.57 nM.
